According to patent publication US10675355B2, “VAR2CSA-drug conjugates” (priority 2013, dated 2020):

Tested on: Karpas 299 human T cell lymphoma tumor
Assay: Karpas 299 xenograft efficacy study
Format: in vivo, mice
Details: IV q2dx3: VAR2-Compound O 12, VAR2 12, Compound 886 0.312 mg/kg
Procedure: Female C.B-17/IcrHsd-Prkdcscid mice (Harlan Laboratories) were implanted subcutaneously in the back with the Karpas 299 human T cell lymphoma tumor cell line. Karpas 299 was established from the peripheral blood of a person with T cell non-Hodgkin's lymphoma in 1986; now classed as CD30+ anaplastic large cell lymphoma (ALCL). The lab stocks were mycoplasma negative. […] The mean tumor volume on treatment day (day 21) was greater than 150 mm^3. Test articles were administered intravenously on Day 1, 3, and 6 (total of three injections) at the doses indicated in the study grouping table. Body weights and tumor volumes were measured every Monday, Wednesday, and Friday. Animals remained on study until their tumors reached 800 mm^3 in size or they otherwise required euthanasia due to achieving a humane endpoint.

## CN[C@H](C(=O)N[C@H](C(=O)N(C)[C@H](/C=C(\C)C(=O)NS(=O)(=O)c1ccc(N)cc1)C(C)C)C(C)(C)C)C(C)(C)c1ccccc1 [Compound 886, (S,E)-N-(4-Aminophenylsulfonyl)-2,5-dimethyl-4-((S)—N,3,3-trimethyl-2-((S)-3-methyl-2-(methylamino)-3-phenylbutanamido)butanamido)hex-2-enamide]
VAR2 versus, Study Day 21
  tumor volume, two-way ANOVA Bonferroni posttests: ns (P > 0.05 = ns (not significant))
VAR2 versus, Study Day 23
  tumor volume, two-way ANOVA Bonferroni posttests: ns (P > 0.05 = ns (not significant))
VAR2 versus, Study Day 26
  tumor volume, two-way ANOVA Bonferroni posttests: ns (P > 0.05 = ns (not significant))
VAR2 versus, Study Day 28
  tumor volume, two-way ANOVA Bonferroni posttests: * (P < 0.05 = *)
VAR2 versus, Study Day 30
  tumor volume, two-way ANOVA Bonferroni posttests: ** (P < 0.01 = **)
Vehicle versus, Study Day 21
  tumor volume, two-way ANOVA Bonferroni posttests: ns (P > 0.05 = ns (not significant))
Vehicle versus, Study Day 23
  tumor volume, two-way ANOVA Bonferroni posttests: ns (P > 0.05 = ns (not significant))
Vehicle versus, Study Day 26
  tumor volume, two-way ANOVA Bonferroni posttests: * (P < 0.05 = *)
Vehicle versus, Study Day 28
  tumor volume, two-way ANOVA Bonferroni posttests: *** (P < 0.001 = ***)
Vehicle versus, Study Day 30
  tumor volume, two-way ANOVA Bonferroni posttests: *** (P < 0.001 = ***)
